Assay results: publication PMC5062470, “The mGluR2 positive allosteric modulator, SAR218645, improves memory and attention deficits in translational models of cognitive symptoms associated with schizophrenia” (Scientific Reports, 2016)

Experiments:
[1] = test system: mice; design: method as in earlier work; conditions: cited from earlier work
[2] = test system: OF1 mice; experiment: Pentylenetetrazol (PTZ) seizure threshold test; format: in vivo; conditions: dose-range 10–30, po
Experimental: The seizure threshold was determined by the infusion of 8 mg/mL of PTZ at a rate of 0.7 mL/min via a flexible plastic catheter into the tail vein of freely moving OF1 mice (22–24 g) using an infusion pump. The convulsant dose for each endpoint was calculated in mg/kg PTZ. SAR218645 (10 and 30 mg/kg, po) and diazepam (3 mg/kg, ip) were administered 60 or 30 min prior to the beginning of PTZ infusion, respectively. One-way ANOVA was used to assess overall effect of treatment, and Dunnett’s post-hoc was used to compare differences between treatment groups. Ten to fifteen animals per group were used.

[3] = test system: OF1 mice; experiment: 6-Hz electroshock-induced seizures; format: in vivo; conditions: dose-range 10–30, ip
Experimental: SAR218645 (10 and 30 mg/kg, po) and the reference anticonvulsant agent, levetiracetam (20 mg/kg), were administered ip. to OF1 mice (12–14 g) 30 min prior to test, respectively. An electrical stimulus (6 Hz, 0.2 ms rectangular pulse, 3 s duration, 32 mA) was applied to both corneas. Animals were closely observed and rated for seizure behavior according to a modified Racine scale. Kruskal-Wallis multiple comparisons test was used to assess potential differences between treatment groups.

[4] = test system: Swiss mice; experiment: MK-801-induced locomotor hyperactivity; format: in vivo
Experimental: An actimeter device consisting of a cylinder (20 cm diameter, 9.5 cm height, Apelex, France) equipped with two perpendicular light beams located 1.5 cm above the floor was used. Mice from the transgenic batches (DAT^−/− and NMDA Nr1^neo−/−) were orally pretreated with either SAR218645 or vehicle and individually isolated in boxes for a period of 60 min. Animals were then placed in the actimeter device and locomotor activity (number of interrupted light beams) was recorded for a period of 30 or 60 min. Mice in which the expression of the dopamine transporter (DAT) was knocked out (i.e., the DAT^−/− mouse) have been proposed as a reliable model of the positive symptoms of schizophrenia. In these mice, dopamine levels in the synapse are dramatically elevated and these animals are hyperactive and agitated in behavioral tests. […] Immediately following amphetamine challenge, 30 min after MK-801 challenge, mice were placed in the actimeter devices and locomotor activity was recorded for a period of 30 (DAT^−/−) or 60 (NMDA Nr1^neo−/−) min.
Statistical analyses were performed using SAS V8.2 software (SAS Institute, Cary, NC, USA). The number of light beam breaks (motility count) recorded for 30 or 60 min were analyzed using one-way ANOVAs using a fixed factor of challenge or genotype and complementary post hoc (Newman-Keuls) tests were performed. […]

[5] = test system: CD-1 mice; experiment: DOI-induced head-twitch behaviors; format: in vivo
Experimental: Male CD-1 mice weighing 25–30 g at the time of testing were used. Animals were brought into the testing area and allowed at least 30 min to acclimatize. The behavior observation was conducted in a wire test chamber measuring 10 cm^3. SAR218645 or the selective 5-HT2A receptor antagonist, volinanserin, was administered po at various times before administration of DOI. DOI was injected ip at a dose of 1 mg/kg. Five minutes later behavioral observation commenced. A trained (blinded) observer continuously watched the mice for 20 min and noted the number of DOI-induced head twitches during this time. The number of head twitches per group was averaged and SAR218645 or volinanserin plus DOI were compared to DOI alone. Three to eight animals per group were used.

[6] = test system: mice; design: method as in earlier work; conditions: wide dose-range; cited from earlier work

For CC1(C)CCc2cc(OC[C@@H]3Cn4ccc(=O)nc4O3)ccc21 [SAR218645, (S)-2-(1,1-dimethyl-indan-5-yloxymethyl)-2,3-dihydro-oxazolo[3,2-a]pyrimidin-7-one], the “effect on the activity of risperidone in the active avoidance test” value [1] is listed as “did not interfere”, the Minimal active dose [2] is listed as over 30 mg/kg and the Minimal active dose [3] is listed as over 30 mg/kg. For the same molecule, the “effect on locomotor activity” value ([4]; MK-801 0.2 mg/kg ip, SAR218645 po) was “no effects”, the Minimal active dose ([4]; dose-range 0.1–10, po, Swiss mice) was over 10 mg/kg and the Minimal active dose ([5]; dose-range 1–10, po, CD-1 mice) was 3 mg/kg. The “effect on DOI-induced head twitches” value ([5]; po, DOI 1 mg/kg ip, significant at 3 and 10 mg/kg) was “dose-dependently inhibited” and the “effect on the ability of haloperidol and risperidone to alleviate psychostimulant-induced hyperactivity” value [6] was “did not alter”.
